For this series, the target named is ATXN2. As to the kind of experiment: mouse, dose not given. The following applies: ASO.

HELM strings list units from the 5' end as sugar, base in round brackets, then linkage (d deoxyribose, r ribose, m 2'-O-methyl, p phosphodiester). Strings are as the collection lists them; they lack the last nucleoside at the 3' end of the tested compound. [moe] = 2'-O-(2-methoxyethyl) (MOE); [sp] = phosphorothioate linkage; [m5C] = 5-methylcytosine

The substance “RNA1{[moe](G)[sp].[moe](G)p.[moe](T)p.[moe](A)p.[moe](A)p.d([m5C])[sp].d(A)[sp].d(G)[sp].d([m5C])[sp].d(T)[sp].d([m5C])[sp].d(T)[sp].d(G)[sp].d(T)[sp].d(T)[sp].[moe]([m5C])p.[moe](G)p.[moe](A)[sp].[moe](T)}$$$$ (last 3' nucleoside missing)” returned a 3 h FOB score of 7 score 0-7.

In turn, “RNA1{[moe](G)[sp].[moe](G)p.[moe](T)p.[moe](A)p.[moe]([m5C])p.d(A)[sp].d([m5C])[sp].d(A)[sp].d(G)[sp].d(T)[sp].d(T)[sp].d(T)[sp].d([m5C])[sp].d(A)[sp].d([m5C])[sp].[moe](T)p.[moe](A)p.[moe](G)[sp].[moe](G)}$$$$ (last 3' nucleoside missing)” gave a 3 h FOB score of 4.75 score 0-7.

As for “RNA1{[moe](G)[sp].[moe](G)p.[moe](T)p.[moe](G)p.[moe](A)p.d(T)[sp].d(G)[sp].d(T)[sp].d(T)[sp].d(T)[sp].d([m5C])[sp].d(A)[sp].d(T)[sp].d(T)[sp].d(G)[sp].[moe](G)p.[moe](G)p.[moe](T)[sp].[moe](T)}$$$$ (last 3' nucleoside missing)”, the 3 h FOB score was 4.5 score 0-7.

In turn, “RNA1{[moe](G)[sp].[moe](G)p.[moe](T)p.[moe](G)p.[moe](G)[sp].d(T)[sp].d(G)[sp].d(T)[sp].d(G)[sp].d([m5C])[sp].d(G)[sp].d([m5C])[sp].d(A)[sp].[moe](T)p.[moe](G)p.[moe](T)[sp].[moe](A)}$$$$ (last 3' nucleoside missing)” showed a 3 h FOB score of 7 score 0-7.

Substance “RNA1{[moe](G)[sp].[moe](G)p.[moe](T)p.[moe](G)p.[moe](G)p.d(T)[sp].d(G)[sp].d(T)[sp].d(G)[sp].d([m5C])[sp].d(G)[sp].d([m5C])[sp].d(A)[sp].d(T)[sp].d(G)[sp].[moe](T)p.[moe](A)p.[moe](G)[sp].[moe](A)}$$$$ (last 3' nucleoside missing)” returned a 3 h FOB score of 7 score 0-7.

The substance “RNA1{[moe](G)[sp].[moe](G)p.[moe](T)p.[moe]([m5C])p.[moe](A)p.d(A)[sp].d(G)[sp].d(G)[sp].d(T)[sp].d([m5C])[sp].d(A)[sp].d(A)[sp].d(T)[sp].d(A)[sp].d([m5C])[sp].[moe](T)p.[moe](T)p.[moe](T)[sp].[moe](T)}$$$$ (last 3' nucleoside missing)” yielded a 3 h FOB score of 2 score 0-7.

The substance “RNA1{[moe](G)[sp].[moe](G)p.[moe]([m5C])p.[moe](T)p.[moe](G)p.d(G)[sp].d(A)[sp].d(A)[sp].d(G)[sp].d(T)[sp].d([m5C])[sp].d(T)[sp].d(G)[sp].d(A)[sp].d(A)[sp].[moe]([m5C])p.[moe]([m5C])p.[moe]([m5C])[sp].[moe]([m5C])}$$$$ (last 3' nucleoside missing)” registered a 3 h FOB score of 6 score 0-7.

“RNA1{[moe](G)[sp].[moe](T)[sp].[moe](G)[sp].[moe](G)[sp].[moe](G)[sp].d(A)[sp].d(T)[sp].d(A)[sp].d([m5C])[sp].d(A)[sp].d(A)[sp].d(A)[sp].d(T)[sp].d(T)[sp].d([m5C])[sp].[moe](T)[sp].[moe](A)[sp].[moe](G)[sp].[moe](G)}$$$$ (last 3' nucleoside missing)” registered a 3 h FOB score of 7 score 0-7.

In the case of “RNA1{[moe](G)[sp].[moe](T)p.[moe](A)p.[moe](A)p.[moe]([m5C])p.d(A)[sp].d(A)[sp].d(T)[sp].d(T)[sp].d(G)[sp].d(T)[sp].d(A)[sp].d(A)[sp].d(A)[sp].d(T)[sp].[moe]([m5C])p.[moe]([m5C])p.[moe](A)[sp].[moe](T)}$$$$ (last 3' nucleoside missing)”, the 3 h FOB score came out at 0.75 score 0-7.

The substance “RNA1{[moe](G)[sp].[moe](T)p.[moe](A)p.[moe](G)p.[moe](T)p.d(G)[sp].d(T)[sp].d(T)[sp].d(T)[sp].d(G)[sp].d(G)[sp].d(G)[sp].d(A)[sp].d(T)[sp].d(G)[sp].[moe]([m5C])p.[moe](T)p.[moe](T)[sp].[moe]([m5C])}$$$$ (last 3' nucleoside missing)” displayed a 3 h FOB score of 6 score 0-7.

“RNA1{[moe](G)[sp].[moe](T)p.[moe](A)p.[moe](T)p.[moe](G)[sp].d(T)[sp].d(T)[sp].d(T)[sp].d(G)[sp].d(T)[sp].d([m5C])[sp].d(T)[sp].d(G)[sp].[moe](T)p.[moe]([m5C])p.[moe](T)[sp].[moe](T)}$$$$ (last 3' nucleoside missing)”: the 3 h FOB score was determined as 6.5 score 0-7.

On to “RNA1{[moe](G)[sp].[moe](T)p.[moe](A)p.[moe](T)p.[moe](G)p.d(T)[sp].d(T)[sp].d(T)[sp].d(G)[sp].d(T)[sp].d([m5C])[sp].d(T)[sp].d(G)[sp].d(T)[sp].d([m5C])[sp].[moe](T)p.[moe](T)p.[moe](A)[sp].[moe](T)}$$$$ (last 3' nucleoside missing)”, for which the 3 h FOB score came to 6 score 0-7.

Consider “RNA1{[moe](G)[sp].[moe](T)p.[moe](A)p.[moe](T)p.[moe](T)p.d(T)[sp].d(T)[sp].d(T)[sp].d([m5C])[sp].d(T)[sp].d(T)[sp].d([m5C])[sp].d([m5C])[sp].d(T)[sp].d([m5C])[sp].[moe](A)p.[moe]([m5C])p.[moe](T)[sp].[moe]([m5C])}$$$$ (last 3' nucleoside missing)”, for which the 3 h FOB score amounted to 3.25 score 0-7.

Regarding “RNA1{[moe](G)[sp].[moe](T)p.[moe](A)p.[moe](T)p.[moe]([m5C])p.d(A)[sp].d(T)[sp].d(A)[sp].d(T)[sp].d(A)[sp].d(T)[sp].d(T)[sp].d(T)[sp].d([m5C])[sp].d(T)[sp].[moe]([m5C])p.[moe](A)p.[moe](G)[sp].[moe]([m5C])}$$$$ (last 3' nucleoside missing)”, the 3 h FOB score was found to be 2.25 score 0-7.

With “RNA1{[moe](G)[sp].[moe](T)p.[moe](A)p.[moe]([m5C])p.[moe](A)p.d(T)[sp].d(T)[sp].d(T)[sp].d(T)[sp].d(A)[sp].d(A)[sp].d([m5C])[sp].d([m5C])[sp].d([m5C])[sp].d(T)[sp].[moe](T)p.[moe](T)p.[moe](G)[sp].[moe](A)}$$$$ (last 3' nucleoside missing)”, the 3 h FOB score was 2.5 score 0-7.

For “RNA1{[moe](G)[sp].[moe](T)p.[moe](A)p.[moe]([m5C])p.[moe](A)p.d([m5C])[sp].d(A)[sp].d(G)[sp].d(T)[sp].d(T)[sp].d(T)[sp].d([m5C])[sp].d(A)[sp].d([m5C])[sp].d(T)[sp].[moe](A)p.[moe](G)p.[moe](G)[sp].[moe](T)}$$$$ (last 3' nucleoside missing)”, the 3 h FOB score is 3 score 0-7.

“RNA1{[moe](G)[sp].[moe](T)p.[moe](A)p.[moe]([m5C])p.[moe](T)[sp].d(T)[sp].d(T)[sp].d(T)[sp].d([m5C])[sp].d(T)[sp].d([m5C])[sp].d(A)[sp].d(T)[sp].[moe](G)p.[moe](T)p.[moe](G)[sp].[moe]([m5C])}$$$$ (last 3' nucleoside missing)”: the 3 h FOB score was found to be 1.25 score 0-7.

“RNA1{[moe](G)[sp].[moe](T)p.[moe](A)p.[moe]([m5C])p.[moe](T)[sp].d(T)[sp].d([m5C])[sp].d(A)[sp].d([m5C])[sp].d(A)[sp].d(T)[sp].d(T)[sp].d(T)[sp].[moe](G)p.[moe](G)p.[moe](A)[sp].[moe](G)}$$$$ (last 3' nucleoside missing)”: the 3 h FOB score came out at 1 score 0-7.

In turn, “RNA1{[moe](G)[sp].[moe](T)p.[moe](A)p.[moe]([m5C])p.[moe](T)p.d(T)[sp].d(T)[sp].d(T)[sp].d([m5C])[sp].d(T)[sp].d([m5C])[sp].d(A)[sp].d(T)[sp].d(G)[sp].d(T)[sp].[moe](G)p.[moe]([m5C])p.[moe](G)[sp].[moe](G)}$$$$ (last 3' nucleoside missing)” gave a 3 h FOB score of 1 score 0-7.

Substance “RNA1{[moe](G)[sp].[moe](T)p.[moe](A)p.[moe]([m5C])p.[moe](T)p.d(T)[sp].d([m5C])[sp].d(A)[sp].d([m5C])[sp].d(A)[sp].d(T)[sp].d(T)[sp].d(T)[sp].d(G)[sp].d(G)[sp].[moe](A)p.[moe](G)p.[moe]([m5C])[sp].[moe]([m5C])}$$$$ (last 3' nucleoside missing)” registered a 3 h FOB score of 1 score 0-7.

Take “RNA1{[moe](G)[sp].[moe](T)p.[moe](G)p.[moe](A)p.[moe](G)p.d(T)[sp].d(T)[sp].d([m5C])[sp].d(A)[sp].d([m5C])[sp].d([m5C])[sp].d(T)[sp].d(G)[sp].d([m5C])[sp].d(A)[sp].[moe](T)p.[moe]([m5C])p.[moe]([m5C])[sp].[moe]([m5C])}$$$$ (last 3' nucleoside missing)”: the 3 h FOB score came out at 2.25 score 0-7.

“RNA1{[moe](G)[sp].[moe](T)p.[moe](G)p.[moe](A)p.[moe](T)p.[moe](G)p.d(T)[sp].d(T)[sp].d(T)[sp].d([m5C])[sp].d(A)[sp].d(T)[sp].d(T)[sp].d(G)[sp].d(G)[sp].d(G)[sp].[moe](T)p.[moe](T)[sp].[moe](T)}$$$$ (last 3' nucleoside missing)”: the 3 h FOB score stood at 4 score 0-7.

“RNA1{[moe](G)[sp].[moe](T)p.[moe](G)p.[moe](A)p.[moe](T)p.d(G)[sp].d(T)[sp].d(T)[sp].d(T)[sp].d([m5C])[sp].d(A)[sp].d(T)[sp].d(T)[sp].d(G)[sp].d(G)[sp].[moe](G)p.[moe](T)p.[moe](T)[sp].[moe](T)}$$$$ (last 3' nucleoside missing)” yielded a 3 h FOB score of 4.5 score 0-7.

The substance “RNA1{[moe](G)[sp].[moe](T)p.[moe](G)p.[moe](A)p.d(T)[sp].d(G)[sp].d(T)[sp].d(T)[sp].d(T)[sp].d([m5C])[sp].d(A)[sp].d(T)[sp].d(T)[sp].d(G)[sp].[moe](G)p.[moe](G)p.[moe](T)p.[moe](T)[sp].[moe](T)}$$$$ (last 3' nucleoside missing)” showed a 3 h FOB score of 6 score 0-7.

In turn, “RNA1{[moe](G)[sp].[moe](T)p.[moe](G)p.[moe](G)p.[moe](T)[sp].d(G)[sp].d(T)[sp].d(G)[sp].d([m5C])[sp].d(G)[sp].d([m5C])[sp].d(A)[sp].d(T)[sp].[moe](G)p.[moe](T)p.[moe](A)[sp].[moe](G)}$$$$ (last 3' nucleoside missing)” had a 3 h FOB score of 6.75 score 0-7.

Regarding “RNA1{[moe](G)[sp].[moe](T)p.[moe](G)p.[moe](G)p.[moe](T)p.d(G)[sp].d(G)[sp].d(T)[sp].d(G)[sp].d(T)[sp].d(G)[sp].d([m5C])[sp].d(G)[sp].d([m5C])[sp].d(A)[sp].[moe](T)p.[moe](G)p.[moe](T)[sp].[moe](A)}$$$$ (last 3' nucleoside missing)”, the 3 h FOB score was 7 score 0-7.

For the origin of these results see the OligoGym collection.
